Laboratory results: patent publication US8110575B2, “Compounds” (Boehringer Ingelheim International GmbH, priority 2007, dated 2012)

Molecular target: T1, human CGRP receptor (Homo sapiens, UniProt O60894+Q16602)
T1 construct: SK-N-MC membranes (˜20 μg protein) are incubated for 180 minutes at ambient temperature; endogenous in cells; host or cells: SK-N-MC cells (membrane preparation)
Test: Binding studies with SK-N-MC cells (expressing the human CGRP receptor)
Details: SK-N-MC membranes, 125I-iodotyrosyl-CGRP displacement
Description: A. Binding Studies with SK-N-MC Cells (Expressing the Human CGRP Receptor)
SK-N-MC membranes (˜20 μg protein) are incubated for 180 minutes at ambient temperature with 50 pM ^125I-iodotyrosyl-Calcitonin-Gene-Related Peptide and increasing concentrations of the test substances in a total volume of […] (assay buffer: 10 mM tris, 50 mM NaCl, 5 mM MgCl2, 1 mM EDTA, pH=7.4). The incubation is ended by rapid filtration through GF/B-glass fibre filters treated with polyethyleneimine (0.1%) using a cell harvester. The protein-bound radioactivity is measured using a gamma counter. Non-specific binding is defined as the bound radioactivity after the presence of 1 μM BIBN4096BS during incubation.
The concentration binding curves are analysed using computer-aided non-linear curve fitting.

T1 sequence (Q16602 23-461): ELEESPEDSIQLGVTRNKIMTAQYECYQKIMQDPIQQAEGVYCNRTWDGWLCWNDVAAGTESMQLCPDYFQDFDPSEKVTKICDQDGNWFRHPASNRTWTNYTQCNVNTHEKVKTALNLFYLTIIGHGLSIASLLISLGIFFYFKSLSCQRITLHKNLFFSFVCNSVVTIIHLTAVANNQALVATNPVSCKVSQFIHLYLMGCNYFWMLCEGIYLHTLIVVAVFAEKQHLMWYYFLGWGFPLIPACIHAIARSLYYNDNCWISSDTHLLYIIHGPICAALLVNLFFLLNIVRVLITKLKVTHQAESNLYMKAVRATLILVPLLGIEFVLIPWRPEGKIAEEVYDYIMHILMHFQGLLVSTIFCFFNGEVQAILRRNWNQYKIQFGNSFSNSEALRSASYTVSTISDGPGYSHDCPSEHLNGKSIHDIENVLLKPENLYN
T1 sequence (O60894 27-148): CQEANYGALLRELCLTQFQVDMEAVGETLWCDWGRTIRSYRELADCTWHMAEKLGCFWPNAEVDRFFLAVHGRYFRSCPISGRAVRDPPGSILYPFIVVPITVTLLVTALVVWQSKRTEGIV

O=C(c1cc(Nc2ccc3c(c2)CC2(C3)C(=O)Nc3ncccc32)ncn1)N(CC(F)(F)F)c1ccccc1 (stereo not shown) [(6)]
Ki: 120 nM

O=C(c1cc(Nc2ccc3c(c2)CC2(C3)C(=O)Nc3ncccc32)ncn1)N1CCc2ccccc21 (stereo not shown) [(1)]
Ki: 15 nM

CN1C(=O)NC(=O)C12Cc1ccc(Nc3cc(C(=O)N4CCc5ccccc54)ncn3)cc1C2 (stereo not shown) [(9)]
Ki: 132 nM

O=C1Nc2ccccc2C2(CCN(c3cc(C(=O)N4CCc5ccccc54)ncn3)CC2)O1 [(3)]
Ki: 535 nM
